According to US9688667B2, “Tazarotene with low dimer impurity for treating acne or psoriasis” (SUN PHARMACEUTICAL INDUSTRIES LIMITED, priority 2013, dated 2017):

Assays:
[1] = system: ear of Sprague Dawley Rats; assay: Toxicity study: topical application of tazarotene spiked with dimer impurity on rat ears, ear thickness measurement; assay type: in vivo
Procedure: Inventor performed the toxicity study of tazarotene spiked with known dimer impurity by applying the fixed concentration a solution of tazarotene (0.1% w/v tazarotene) with variable concentrations of impurity (0-1500 ppm) on Sprague Dawley Rats as given in Table 1.
Each sample (100 μl) was applied topically once daily on the left and right ear of the animals (Sprague Dawley Rats) of the respective groups from day 0 to day 9. Animals were checked for recovery from day 10 to day 14. Ear thickness measurement was repeated on day 3, 7, 10, 12 and 14.

[2] = tazarotene gel, psoriasis, cited from earlier work

Structure (SMILES)	effect of level of dimer impurity on ear thickness and inflammation ([1]; dimer impurity 0-1500 ppm in tazarotene samples, topical application)	toxicity of the dimer impurity ([1]; found during the animal studies)	cessation of treatment due to adverse events ([2]; of patient population)	most common adverse effect [2]
CC1(C)CCSc2ccc(C#CC#Cc3ccc4c(c3)C(C)(C)CCS4)cc21 [dimer impurity, 4,4-dimethyl-6-[4-(4,4-dimethylthiochroman-6-yl)-buta-1,3-diynyl]-thiochroman]	dose dependent and significant increase	highly toxic		
CCOC(=O)c1ccc(C#Cc2ccc3c(c2)C(C)(C)CCS3)nc1 [tazarotene, ethyl 6-[(4,4-dimethylthiochroman-6-yl)ethynyl]nicotinate]			about 5%	mild to moderate burning, pruritus, stinging and erythema
